# Species on record: Rattus norvegicus
# Assay: DrugMatrix - Regimen: Daily Repeat
# Format: toxicity, organism-based, Sprague-Dawley
# Design: regimen Daily Repeat, gender Male, age 6-8 weeks
# Conditions: in vivo, po, route oral GAVAGE, vehicle 100 % WATER; for ABSOLUTE BASOPHIL / ABSOLUTE EOSINOPHIL / ABSOLUTE LYMPHOCYTE / ABSOLUTE MONOCYTE / ABSOLUTE SEGMENTED NEUTROPHIL / BASOPHIL / EOSINOPHIL / ERYTHROCYTE COUNT / HEMATOCRIT / HEMOGLOBIN / LEUKOCYTE COUNT / LYMPHOCYTE / MEAN CORPUSCULAR HEMOGLOBIN / MEAN CORPUSCULAR HEMOGLOBIN CONCENTRATION / MEAN CORPUSCULAR VOLUME / MONOCYTE / NEUTROPHIL / NUCLEATED RED BLOOD CELLS / PLATELET COUNT: tissue Blood; for ALANINE AMINOTRANSFERASE / ALBUMIN / ALKALINE PHOSPHATASE / ASPARTATE AMINOTRANSFERASE / BLOOD UREA NITROGEN / CARBON DIOXIDE / CHLORIDE / CHOLESTEROL / CREATINE PHOSPHOKINASE / CREATININE / GLUCOSE / LACTATE DEHYDROGENASE / LIPASE / PHOSPHORUS / POTASSIUM / SODIUM / TOTAL BILIRUBIN / TOTAL PROTEIN / URIC ACID: tissue Plasma
# [1] = 0 mg/kg, 72 h, dose level Control, time 3 day
# [2] = 0 mg/kg, 120 h, dose level Control, time 5 day
# [3] = 2200 mg/kg, 72 h, dose level High, time 3 day
# [4] = 2200 mg/kg, 120 h, dose level High, time 5 day
smiles,measurement,setting,value
O.O.O.O.O.O.[Cl-].[Cl-].[Sr+2] [STRONTIUM CHLORIDE HEXAHYDRATE],ABSOLUTE BASOPHIL,[1],0 CELLS/uL
same,ABSOLUTE EOSINOPHIL,[1],151.33 CELLS/uL
same,ABSOLUTE LYMPHOCYTE,[1],10599.5 CELLS/uL
same,ABSOLUTE MONOCYTE,[1],109.5 CELLS/uL
same,ABSOLUTE SEGMENTED NEUTROPHIL,[1],1139.67 CELLS/uL
same,BASOPHIL,[1],0%
same,EOSINOPHIL,[1],0.83%
same,ERYTHROCYTE COUNT,[1],5.54 x10E6/uL
same,HEMATOCRIT,[1],35.35%
same,HEMOGLOBIN,[1],13.22 G/DL
same,LEUKOCYTE COUNT,[1],12 x10E3/uL
same,LYMPHOCYTE,[1],89%
same,MEAN CORPUSCULAR HEMOGLOBIN,[1],23.88 pg
same,MEAN CORPUSCULAR HEMOGLOBIN CONCENTRATION,[1],37.4 G/DL
same,MEAN CORPUSCULAR VOLUME,[1],63.85 fL
same,MONOCYTE,[1],1%
same,NEUTROPHIL,[1],9.17%
same,NUCLEATED RED BLOOD CELLS,[1],0 /100WBC
same,PLATELET COUNT,[1],1333.33 x10E3/uL
same,ALANINE AMINOTRANSFERASE,[1],53.17 u/L
same,ALBUMIN,[1],4.32 G/DL
same,ALKALINE PHOSPHATASE,[1],404.33 u/L
same,ASPARTATE AMINOTRANSFERASE,[1],83.17 u/L
same,BLOOD UREA NITROGEN,[1],15.67 mg/dL
same,CARBON DIOXIDE,[1],27.33 mmol/L
same,CHLORIDE,[1],101.83 MEQ/L
same,CHOLESTEROL,[1],68.67 mg/dL
same,CREATINE PHOSPHOKINASE,[1],276.17 u/L
same,CREATININE,[1],0.18 mg/dL
same,GLUCOSE,[1],163.5 mg/dL
same,LACTATE DEHYDROGENASE,[1],144.67 u/L
same,LIPASE,[1],8.83 u/L
same,PHOSPHORUS,[1],11.72 mg/dL
same,POTASSIUM,[1],5.99 MEQ/L
same,SODIUM,[1],143.57 MEQ/L
same,TOTAL BILIRUBIN,[1],0.2 mg/dL
same,TOTAL PROTEIN,[1],6.1 G/DL
same,URIC ACID,[1],1.38 mg/dL
same,ABSOLUTE BASOPHIL,[2],0 CELLS/uL
same,ABSOLUTE EOSINOPHIL,[2],248.67 CELLS/uL
same,ABSOLUTE LYMPHOCYTE,[2],12977.83 CELLS/uL
same,ABSOLUTE MONOCYTE,[2],19.67 CELLS/uL
same,ABSOLUTE SEGMENTED NEUTROPHIL,[2],1137.17 CELLS/uL
same,BASOPHIL,[2],0%
same,EOSINOPHIL,[2],1.67%
same,ERYTHROCYTE COUNT,[2],5.82 x10E6/uL
same,HEMATOCRIT,[2],36.35%
same,HEMOGLOBIN,[2],13.58 G/DL
same,LEUKOCYTE COUNT,[2],14.38 x10E3/uL
same,LYMPHOCYTE,[2],90.5%
same,MEAN CORPUSCULAR HEMOGLOBIN,[2],23.32 pg
same,MEAN CORPUSCULAR HEMOGLOBIN CONCENTRATION,[2],37.42 G/DL
same,MEAN CORPUSCULAR VOLUME,[2],62.42 fL
same,MONOCYTE,[2],0.17%
same,NEUTROPHIL,[2],7.67%
same,NUCLEATED RED BLOOD CELLS,[2],0 /100WBC
same,PLATELET COUNT,[2],1337.67 x10E3/uL
same,ALANINE AMINOTRANSFERASE,[2],48.5 u/L
same,ALBUMIN,[2],4.32 G/DL
same,ALKALINE PHOSPHATASE,[2],354.33 u/L
same,ASPARTATE AMINOTRANSFERASE,[2],80 u/L
same,BLOOD UREA NITROGEN,[2],16 mg/dL
same,CARBON DIOXIDE,[2],27.33 mmol/L
same,CHLORIDE,[2],100.33 MEQ/L
same,CHOLESTEROL,[2],68 mg/dL
same,CREATINE PHOSPHOKINASE,[2],325.17 u/L
same,CREATININE,[2],0.23 mg/dL
same,GLUCOSE,[2],172 mg/dL
same,LACTATE DEHYDROGENASE,[2],254.83 u/L
same,LIPASE,[2],8.33 u/L
same,PHOSPHORUS,[2],12.17 mg/dL
same,POTASSIUM,[2],6.28 MEQ/L
same,SODIUM,[2],143.57 MEQ/L
same,TOTAL BILIRUBIN,[2],0.18 mg/dL
same,TOTAL PROTEIN,[2],6.12 G/DL
same,URIC ACID,[2],1.78 mg/dL
same,ABSOLUTE BASOPHIL,[3],0 CELLS/uL
same,ABSOLUTE EOSINOPHIL,[3],196.33 CELLS/uL
same,ABSOLUTE LYMPHOCYTE,[3],12931 CELLS/uL
same,ABSOLUTE MONOCYTE,[3],96.33 CELLS/uL
same,ABSOLUTE SEGMENTED NEUTROPHIL,[3],1409.67 CELLS/uL
same,BASOPHIL,[3],0%
same,EOSINOPHIL,[3],1.33%
same,ERYTHROCYTE COUNT,[3],5.23 x10E6/uL
same,HEMATOCRIT,[3],33.33%
same,HEMOGLOBIN,[3],12.6 G/DL
same,LEUKOCYTE COUNT,[3],14.63 x10E3/uL
same,LYMPHOCYTE,[3],88.33%
same,MEAN CORPUSCULAR HEMOGLOBIN,[3],24.13 pg
same,MEAN CORPUSCULAR HEMOGLOBIN CONCENTRATION,[3],37.8 G/DL
same,MEAN CORPUSCULAR VOLUME,[3],63.8 fL
same,MONOCYTE,[3],0.67%
same,NEUTROPHIL,[3],9.67%
same,NUCLEATED RED BLOOD CELLS,[3],0 /100WBC
same,PLATELET COUNT,[3],1378.33 x10E3/uL
same,ALANINE AMINOTRANSFERASE,[3],57.67 u/L
same,ALBUMIN,[3],4.13 G/DL
same,ALKALINE PHOSPHATASE,[3],643.67 u/L
same,ASPARTATE AMINOTRANSFERASE,[3],69.33 u/L
same,BLOOD UREA NITROGEN,[3],15.33 mg/dL
same,CARBON DIOXIDE,[3],26.33 mmol/L
same,CHLORIDE,[3],104.67 MEQ/L
same,CHOLESTEROL,[3],80 mg/dL
same,CREATINE PHOSPHOKINASE,[3],192.67 u/L
same,CREATININE,[3],0.19 mg/dL
same,GLUCOSE,[3],177 mg/dL
same,LACTATE DEHYDROGENASE,[3],86.33 u/L
same,LIPASE,[3],8.33 u/L
same,PHOSPHORUS,[3],12.27 mg/dL
same,POTASSIUM,[3],6.12 MEQ/L
same,SODIUM,[3],145.67 MEQ/L
same,TOTAL BILIRUBIN,[3],0.27 mg/dL
same,TOTAL PROTEIN,[3],5.8 G/DL
same,URIC ACID,[3],1.97 mg/dL
same,ABSOLUTE BASOPHIL,[4],0 CELLS/uL
same,ABSOLUTE EOSINOPHIL,[4],176 CELLS/uL
same,ABSOLUTE LYMPHOCYTE,[4],13256.67 CELLS/uL
same,ABSOLUTE MONOCYTE,[4],0 CELLS/uL
same,ABSOLUTE SEGMENTED NEUTROPHIL,[4],1734 CELLS/uL
same,BASOPHIL,[4],0%
same,EOSINOPHIL,[4],1%
same,ERYTHROCYTE COUNT,[4],5.42 x10E6/uL
same,HEMATOCRIT,[4],34.13%
same,HEMOGLOBIN,[4],13.03 G/DL
same,LEUKOCYTE COUNT,[4],15.17 x10E3/uL
same,LYMPHOCYTE,[4],87.33%
same,MEAN CORPUSCULAR HEMOGLOBIN,[4],24.13 pg
same,MEAN CORPUSCULAR HEMOGLOBIN CONCENTRATION,[4],38.23 G/DL
same,MEAN CORPUSCULAR VOLUME,[4],63.13 fL
same,MONOCYTE,[4],0%
same,NEUTROPHIL,[4],11.67%
same,NUCLEATED RED BLOOD CELLS,[4],0 /100WBC
same,PLATELET COUNT,[4],1262.67 x10E3/uL
same,ALANINE AMINOTRANSFERASE,[4],42.33 u/L
same,ALBUMIN,[4],3.97 G/DL
same,ALKALINE PHOSPHATASE,[4],573.67 u/L
same,ASPARTATE AMINOTRANSFERASE,[4],58.67 u/L
same,BLOOD UREA NITROGEN,[4],16.67 mg/dL
same,CARBON DIOXIDE,[4],29 mmol/L
same,CHLORIDE,[4],99 MEQ/L
same,CHOLESTEROL,[4],78 mg/dL
same,CREATINE PHOSPHOKINASE,[4],220 u/L
same,CREATININE,[4],0.2 mg/dL
same,GLUCOSE,[4],155.33 mg/dL
same,LACTATE DEHYDROGENASE,[4],172.33 u/L
same,LIPASE,[4],8.67 u/L
same,PHOSPHORUS,[4],11.03 mg/dL
same,POTASSIUM,[4],6.01 MEQ/L
same,SODIUM,[4],142.9 MEQ/L
same,TOTAL BILIRUBIN,[4],0.17 mg/dL
same,TOTAL PROTEIN,[4],5.67 G/DL
same,URIC ACID,[4],1.5 mg/dL

# Source: ChEMBL document CHEMBL3885881, “DrugMatrix”
